Experimental data reported in ChEMBL document CHEMBL4765332, “A multi-scale systems pharmacology approach uncovers the anti-cancer molecular mechanism of Ixabepilone” (Eur J Med Chem, 2020).
Active and inactive are the calls of the source. The rule behind the calls is not given here.

How the values were obtained:
[1] = target: T1, Apoptosis regulator Bcl-2 (Homo sapiens, UniProt P10415); test: Upregulation of Bcl-2 phosphorylation at Ser70 residue in human MCF7 cells at 0.05 to 0.4 microM incubated for 48 hrs by western blot analysis; assay type: cell-based; conditions: dose 0.05-0.4 µM
T1 sequence (P10415 whole entry): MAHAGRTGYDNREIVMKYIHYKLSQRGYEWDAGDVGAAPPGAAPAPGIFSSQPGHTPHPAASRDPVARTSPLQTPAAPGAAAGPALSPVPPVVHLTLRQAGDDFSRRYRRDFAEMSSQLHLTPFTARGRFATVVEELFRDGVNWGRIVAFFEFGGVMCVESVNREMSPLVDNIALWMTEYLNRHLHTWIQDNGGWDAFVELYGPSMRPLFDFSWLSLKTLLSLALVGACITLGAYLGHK

[2] = test system: BT-549; test: Induction of autophagy in human BT-549 cells assessed as increase in LC3-II level measured after 48 hrs by Western blot analysis; assay type: functional, cell-based; conditions: dose 0.05-0.4 µM
[3] = test system: BT-549; test: Induction of apoptosis in human BT-549 cells assessed as late apoptotic cells incubated for 48 hrs in presence of 20 uM autophagy inhibitor, CQ by AnnexinV-FITC and propidium iodide staining based flow cytometry analysis(reference value: 2.64%); assay type: functional
[4] = target: T1, Apoptosis regulator Bcl-2; test: Induction of Bcl-2 phosphorylation-mediated protein degradation in human MCF7 cells assessed as decrease in Bcl-2 expression at 0.1 uM by western blot analysis; assay type: cell-based; conditions: time 12-48 hrs, TDE = time-dependent effect
[5] = test system: MDA-MB-231; test: Induction of autophagy in human MDA-MB-231 cells assessed increase in LC3-II level at 0.1 to 0.2 uM preincubated with 20 uM autophagosome-lysosome fusion inhibitor, chloroquine for 1 hr followed by incubation with compound for 48 hrs by western blot analysis; assay type: functional, cell-based; conditions: dose 0.1-0.2 µM
[6] = test system: BT-549; test: Induction of apoptosis in human BT-549 cells assessed as late apoptotic cells incubated for 48 hrs by AnnexinV-FITC and propidium iodide staining based flow cytometry analysis(reference value: 0.599%); assay type: functional
[7] = test system: Mus musculus; test: Downregulation of Ki67 expression in tumor tissue of BALB/c mouse xenografted with human MDA-MB-231 cells at 3 mg/kg, ip administered with compound every other day and with 10 mg/kg, ip CQ every day by immunohistochemical staining; assay type: functional, organism-based
[8] = test system: MDA-MB-231; test: Antitumor activity against human MDA-MB-231 cells xenografted in BALB/c mouse assessed as tumor growth inhibition at 3 mg/kg, ip administered with compound every other day and with 10 mg/kg, ip CQ every day and measured every 3 days by vernier caliper analysis; assay type: functional, organism-based
[9] = test system: MDA-MB-231; test: Induction of autophagy in human MDA-MB-231 cells assessed as increase in LC3-II level measured after 48 hrs by Western blot analysis; assay type: functional, cell-based; conditions: dose 0.05-0.4 µM
[10] = target: T1, Apoptosis regulator Bcl-2; test: Induction of Bcl-2 phosphorylation-mediated protein degradation in human BT549 cells assessed as decrease in Bcl-2 expression at 0.1 to 0.2 uM pretreated with proteasome inhibitor, MG132 for 2 hrs followed by incubation with compound for 48 hrs by western blot analysis; assay type: cell-based; conditions: BT-549, dose 0.1-0.2 µM
[11] = target: T1, Apoptosis regulator Bcl-2; test: Binding affinity to human recombinant Bcl-2 expressed in Escherichia coli by Surface plasmon resonance assay
[12] = target: T1, Apoptosis regulator Bcl-2; test: Upregulation of Bcl-2 phosphorylation at Ser70 residue in human MDA-MB-231 cells at 0.05 to 0.4 microM incubated for 48 hrs by western blot analysis; assay type: cell-based; conditions: dose 0.05-0.4 µM
[13] = test system: BT-549; test: Induction of apoptosis in human BT-549 cells assessed as early apoptotic cells incubated for 48 hrs in presence of 20 uM autophagy inhibitor, CQ by AnnexinV-FITC and propidium iodide staining based flow cytometry analysis(reference value: 1.94%); assay type: functional
[14] = target: T1, Apoptosis regulator Bcl-2; test: Upregulation of Bcl-2 phosphorylation at Ser70 residue in human BT549 cells at 0.05 to 0.4 microM incubated for 48 hrs by western blot analysis; assay type: cell-based; conditions: BT-549, dose 0.05-0.4 µM
[15] = target: T1, Apoptosis regulator Bcl-2; test: Induction of Bcl-2 phosphorylation-mediated protein degradation in human HepG2 cells assessed as decrease in Bcl-2 expression at 0.4 uM measured after 12 to 48 hrs by western blot analysis; assay type: cell-based; conditions: time 12-48 hrs
[16] = test system: BT-549; test: Induction of apoptosis in human BT-549 cells assessed as necrotic cells incubated for 48 hrs in presence of 20 uM autophagy inhibitor, CQ by AnnexinV-FITC and propidium iodide staining based flow cytometry analysis(reference value: 0.86%); assay type: functional
[17] = target: T1, Apoptosis regulator Bcl-2; test: Upregulation of Bcl-2 phosphorylation at Ser70 residue in human MDA-MB-231 cells at 0.1 microM incubated for 12 to 36 hrs by western blot analysis; assay type: cell-based; conditions: time 12-36 hrs
[18] = target: T1, Apoptosis regulator Bcl-2; test: Upregulation of Bcl-2 phosphorylation at Ser70 residue in human MCF7 cells at 0.1 microM incubated for 12 to 36 hrs by western blot analysis; assay type: cell-based; conditions: time 12-36 hrs
[19] = test system: BT-549; test: Cytotoxicity against human BT-549 cells at 0.1 to 1.6 uM measured after 48 hrs in presence of 20 uM autophagy inhibitor, chloroquine by CCK8 assay; assay type: functional, cell-based; conditions: dose 0.1-1.6 µM
[20] = test system: BT-549; test: Cytotoxicity against human BT-549 cells at 0.1 to 1.6 uM measured after 48 hrs in presence of 2 mM autophagy inhibitor, 3-methyladenine by CCK8 assay; assay type: functional, cell-based; conditions: dose 0.1-1.6 µM
[21] = test system: BT-549; test: Induction of autophagy in human BT-549 cells assessed as increase in LC3-II level at 0.1 uM by Western blot analysis; assay type: functional, cell-based; conditions: time 12-48 hrs, TDE = time-dependent effect
[22] = test system: MCF7; test: Cytotoxicity against human MCF-7 cells at 0.1 to 1.6 uM measured after 48 hrs in presence of 20 uM autophagy inhibitor, chloroquine by CCK8 assay; assay type: functional, cell-based; conditions: dose 0.1-1.6 µM
[23] = test system: BT-549; test: Induction of apoptosis in human BT-549 cells transfected with Beclin1 siRNA assessed as increase in cleaved PARP level measured after 48 hrs by western blot analysis; assay type: functional, cell-based
[24] = test system: MCF7; test: Induction of autophagy in human MCF7 cells assessed as increase in LC3-II level at 0.1 uM by Western blot analysis; assay type: functional, cell-based; conditions: time 12-48 hrs, TDE = time-dependent effect
[25] = test system: HepG2; test: Induction of autophagy in human HepG2 cells assessed as increase in LC3-II expression at 0.4 to 6.4 uM measured after 48 hrs by western blot analysis; assay type: functional, cell-based; conditions: dose 0.4-6.4 µM
[26] = target: T1, Apoptosis regulator Bcl-2; test: Induction of Bcl-2 phosphorylation-mediated protein degradation in human MCF7 cells assessed as decrease in Bcl-2 expression at 0.1 to 0.2 uM pretreated with proteasome inhibitor, MG132 for 2 hrs followed by incubation with compound for 48 hrs by western blot analysis; assay type: cell-based; conditions: dose 0.1-0.2 µM
[27] = test system: U-251; test: Cytotoxicity against human U251 cells at 0.1 to 1.6 uM measured after 48 hrs in presence of 20 uM autophagy inhibitor, chloroquine by CCK8 assay; assay type: functional, cell-based; conditions: dose 0.1-1.6 µM
[28] = test system: MDA-MB-231; test: Cytotoxicity against human MDA-MB-231 cells at 0.1 to 1.6 uM measured after 48 hrs in presence of 20 uM autophagy inhibitor, chloroquine by CCK8 assay; assay type: functional, cell-based; conditions: dose 0.1-1.6 µM
[29] = target: T1, Apoptosis regulator Bcl-2; test: Induction of Bcl-2 phosphorylation-mediated protein degradation in human MCF7 cells assessed as decrease in Bcl-2 expression measured after 48 hrs by western blot analysis; assay type: cell-based; conditions: dose 0.05-0.4 µM
[30] = test system: MDA-MB-231; test: Antitumor activity against human MDA-MB-231 cells xenografted in BALB/c mouse assessed as tumor growth inhibition at 3 mg/kg, ip administered every other day measured every 3 days by vernier caliper analysis; assay type: functional, organism-based
[31] = target: T1, Apoptosis regulator Bcl-2; test: Induction of Bcl-2 phosphorylation-mediated protein degradation in human MDA-MB-231 cells assessed as disruption of Bcl2/Beclin1 interaction at 0.2 uM measured after 48 hrs by co-immunoprecipitation analysis; assay type: cell-based
[32] = target: T1, Apoptosis regulator Bcl-2; test: Induction of Bcl-2 phosphorylation-mediated protein degradation in human MDA-MB-231 cells assessed as decrease in Bcl-2 expression at 0.1 to 0.2 uM pretreated with proteasome inhibitor, MG132 for 2 hrs followed by incubation with compound for 48 hrs by western blot analysis; assay type: cell-based; conditions: dose 0.1-0.2 µM

C/C(=C\c1csc(C)n1)[C@@H]1C[C@@H]2O[C@]2(C)CCC[C@H](C)[C@H](O)[C@@H](C)C(=O)C(C)(C)[C@@H](O)CC(=O)N1 [IXABEPILONE]
Activity [1]: Active
Activity [2]: Dose-dependent effect
Activity [3]: 18%
Activity [4]: Tde
Activity [5]: Active
Activity [6]: 10%
inhibition [7]: Active
Activity [8]: Active
Activity [9]: Dose-dependent effect
Activity [10]: inactive
Kd [11]: 337 nM
Activity [12]: Active
Activity [13]: 4.2%
Activity [14]: Active
Activity [15]: Active
Activity [16]: 3.53%
Activity [17]: Active
Activity [18]: Active
Activity [19]: Active
Activity [20]: Active
Activity [21]: Tde
Activity [22]: Active
Activity [23]: Active
Activity [24]: Tde
Activity [25]: Active
Activity [26]: inactive
Activity [27]: Active
Activity [28]: Active
Activity [29]: Dose-dependent effect
Activity [30]: Active
Activity [31]: Active
Activity [32]: inactive
